Measurements as given in patent US10124004B2, “Pyrido[3,4-d]pyrimidine derivative and pharmaceutically acceptable salt thereof” (Teijin Pharma Limited, priority 2015, dated 2018).

Legend:
CDK4/cyclin D3 = target: T1, CDK4/cyclin D3 (Homo sapiens, UniProt P11802); experiment: Human CDK4/cyclin D3 inhibitory activity (QS S Assist CDK4/Cyclin D3_FP Kit, IMAP fluorescence polarization); type: biochemical; details: 50% inhibitory concentration against CDK4/cyclin D3, given as class symbol
T1 construct: purchased Carna Biosciences, Inc. QS S Assist CDK4/Cyclin D3_FP Kit
Procedure, shortened: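 IMAP fluorescence polarization kit: CDK4/cyclin D3 at 12.5-25 ng/well with kit ATP/substrate/metal mix in 20 mM HEPES pH 7.4, 0.01% Tween20, 2 mM DTT, 45 min at room temperature. FP read at 485/535 nm after 30 min binding; IC50 from dose-response fit of percent inhibition versus enzyme and no-enzyme controls.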

CDK2/cyclin A2 = target: T2, CDK2/cyclin A2 (Homo sapiens, UniProt P24941); experiment: Human CDK2/cyclin A2 inhibitory activity (QS S Assist CDK2/Cyclin A2_FP Kit, IMAP fluorescence polarization); type: biochemical; details: 50% inhibitory concentration against CDK2/cyclin A2, given as class symbol
T2 construct: purchased Carna Biosciences, Inc. QS S Assist CDK2/Cyclin A2_FP Kit
Procedure, shortened: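 Kinase activity read as fluorescence polarization (485/535 nm) after phosphorylated fluorescent substrate binds IMAP reagent (30 min, RT, dark). Enzyme (2.5 ng/well) reacted 60 min at RT with ATP/substrate/metal in HEPES pH 7.4 buffer with Tween 20 and DTT; no-enzyme wells define 0% activity; IC50 by curve fit.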

T1 sequence (P11802 whole entry): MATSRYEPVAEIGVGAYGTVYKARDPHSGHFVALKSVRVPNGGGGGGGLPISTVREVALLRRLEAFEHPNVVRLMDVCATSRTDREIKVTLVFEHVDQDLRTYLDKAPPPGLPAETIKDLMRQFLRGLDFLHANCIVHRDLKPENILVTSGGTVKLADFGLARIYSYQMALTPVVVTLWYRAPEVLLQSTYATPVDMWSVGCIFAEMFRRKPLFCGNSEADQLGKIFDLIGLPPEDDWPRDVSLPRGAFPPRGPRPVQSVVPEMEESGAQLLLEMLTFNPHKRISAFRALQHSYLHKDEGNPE
T1 sequence (P30281 whole entry partner): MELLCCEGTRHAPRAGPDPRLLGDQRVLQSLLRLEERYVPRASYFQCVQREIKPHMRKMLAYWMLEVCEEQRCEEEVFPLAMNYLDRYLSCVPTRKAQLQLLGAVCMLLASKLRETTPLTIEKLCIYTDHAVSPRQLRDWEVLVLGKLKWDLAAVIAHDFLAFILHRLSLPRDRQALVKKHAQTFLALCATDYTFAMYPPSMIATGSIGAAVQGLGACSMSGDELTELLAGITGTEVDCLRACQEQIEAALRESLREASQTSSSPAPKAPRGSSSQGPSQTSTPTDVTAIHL

Compound	IC50 (CDK4/cyclin D3) [nM]	IC50 (CDK2/cyclin A2) [nM]
CC(C)Nc1nc([C@@H](C)O)cc2cnc(Nc3ccc(CN4CCCCC4)cn3)nc12 [Compound 1038]	< 10	≥ 100
CC(C)Nc1nc(C2CC(F)(F)C2)cc2cnc(Nc3ccc(N4CCNCC4=O)cn3)nc12 [Compound 1042]	10 to 100	≥ 100
C[C@@H](O)c1cc2cnc(Nc3ccc(N4CCNCC4=O)cn3)nc2c(NCC2CC2)n1 [Compound 1043]	< 10	≥ 100
C[C@@H](O)c1cc2cnc(Nc3ccc(N4CCNCC4=O)cn3)nc2c(NC2CC2)n1 [Compound 1044]	10 to 100	≥ 100
C[C@@H](O)c1cc2cnc(Nc3ccc(N4CCNCC4=O)cn3)nc2c(NC2CCC2)n1 [Compound 1045]	< 10	≥ 100
Cc1nc(Nc2ncc3cc([C@@H](C)O)nc(NC4CCC4)c3n2)ccc1N1CCNCC1=O [Compound 1048]	< 10	≥ 100
CC(C)Nc1nc([C@@H](C)O)cc2cnc(Nc3cnc(CN4CCNCC4)cn3)nc12 [Compound 1049]	< 10	≥ 100
CC(C)Nc1nc([C@@H](C)O)cc2cnc(Nc3cnc(CN4CCN(CCO)CC4)cn3)nc12 [Compound 1050]	< 10	≥ 100
CC(=O)c1cc2cnc(Nc3ccc(N4CCNCC4)cn3)nc2c(NCC2CC2)n1 [Compound 1052]	10 to 100	≥ 100
Cc1cc(Nc2ncc3cc([C@@H](C)O)nc(NC(C)C)c3n2)ncc1CN1CCN(CCO)CC1 [Compound 1055]	10 to 100	≥ 100
COC(=O)N1CCN(c2ccc(Nc3ncc4cc([C@@H](C)OC)nc(N[C@H]5CCCOC5)c4n3)nn2)CC1 [Compound 1056]	10 to 100	≥ 100
C[C@@H](O)c1cc2cnc(Nc3ccc(CN4CCC(O)CC4)cn3)nc2c(NC2CCC2)n1 [Compound 1063]	< 10	≥ 100
C[C@@H](O)c1cc2cnc(Nc3ccc(CN4CCC(O)CC4)cn3)nc2c(N[C@H]2CC[C@H](O)CC2)n1 [Compound 1064]	< 10	≥ 100
C[C@@H](O)c1cc2cnc(Nc3ccc(CN4CCC(O)CC4)cn3)nc2c(NCC2CCOCC2)n1 [Compound 1065]	< 10	≥ 100
CCC(OC)c1cc2cnc(Nc3ccc(CN4CCNCC4)cn3)nc2c(NC(C)C)n1 (stereo not drawn) [Compound 1066]	10 to 100	≥ 100
CCC(OC)c1cc2cnc(Nc3ccc(CN4CCNCC4)cn3)nc2c(NC(C)C)n1 (stereo not drawn) [Compound 1067]	< 10	≥ 100
CCC(OC)c1cc2cnc(Nc3ccc(N4CCNCC4)nn3)nc2c(NC(C)C)n1 (stereo not drawn) [Compound 1068]	≥ 100	≥ 100
CCC(OC)c1cc2cnc(Nc3ccc(N4CCNCC4)nn3)nc2c(NC(C)C)n1 (stereo not drawn) [Compound 1069]	10 to 100	≥ 100
CCNc1nc([C@@H](C)O)cc2cnc(Nc3ccc(CN4CCN(CC(C)(C)O)CC4)cn3)nc12 [Compound 1073]	< 10	≥ 100
C[C@@H](O)c1cc2cnc(Nc3ccc(N4CCNCC4=O)cn3)nc2c(NC2CCCC2)n1 [Compound 1078]	< 10	≥ 100
C[C@@H](O)c1cc2cnc(Nc3ccc(CN4CCCC(O)C4)cn3)nc2c(N[C@H]2CC[C@H](O)CC2)n1 (stereo partly drawn) [Compound 1086]	< 10	≥ 100
C[C@@H](O)c1cc2cnc(Nc3ccc(CN4CCCC(O)C4)cn3)nc2c(NCC2CCOCC2)n1 (stereo partly drawn) [Compound 1087]	< 10	≥ 100
CC(C)Nc1nc([C@@H](C)O)cc2cnc(Nc3ccc(N4CCN(C(=O)CO)CC4)cn3)nc12 [Compound 1090]	< 10	≥ 100
CCNc1nc([C@@H](C)O)cc2cnc(Nc3ccc(N4CCNCC4)c(C)n3)nc12 [Compound 1091]	< 10	≥ 100
Cc1nc(Nc2ncc3cc([C@@H](C)O)nc(NCC(C)C)c3n2)ccc1N1CCNCC1 [Compound 1093]	< 10	≥ 100

Results, then the compound that gave them:

IC50 (CDK4/cyclin D3) [nM]	IC50 (CDK2/cyclin A2) [nM]	Compound
< 10	≥ 100	CCCNc1nc([C@@H](C)O)cc2cnc(Nc3ccc(CN4CCC(CO)CC4)cn3)nc12 [Compound 1040]
< 10	≥ 100	CC(C)Nc1nc([C@@H](C)O)cc2cnc(Nc3ccc(CN4CCC(O)C4)cn3)nc12 (stereo partly drawn) [Compound 1041]
< 10	≥ 100	CCNc1nc([C@@H](C)O)cc2cnc(Nc3ccc(CN4CCN(CCO)CC4)c(C)n3)nc12 [Compound 1046]
< 10	≥ 100	CCCNc1nc([C@@H](C)O)cc2cnc(Nc3ccc(CN4CCN(CCO)CC4)c(C)n3)nc12 [Compound 1047]
< 10	≥ 100	C[C@@H](O)c1cc2cnc(Nc3ccc(N4CCNCC4)cn3)nc2c(NCC2CC2)n1 [Compound 1051]
10 to 100	≥ 100	CCNc1nc([C@@H](C)O)cc2cnc(Nc3cc(C)c(CN4CCN(CCO)CC4)cn3)nc12 [Compound 1053]
10 to 100	≥ 100	CCCNc1nc([C@@H](C)O)cc2cnc(Nc3cc(C)c(CN4CCN(CCO)CC4)cn3)nc12 [Compound 1054]
< 10	≥ 100	CC(C)Nc1nc([C@@H](C)O)cc2cnc(Nc3ccc(CN4CCCC(O)C4)cn3)nc12 (stereo partly drawn) [Compound 1057]
< 10	≥ 100	CC(C)Nc1nc([C@@H](C)O)cc2cnc(Nc3ccc(O[C@@H]4CCN(CCO)C4)cn3)nc12 [Compound 1058]
< 10	≥ 100	CCCNc1nc([C@@H](C)O)cc2cnc(Nc3ccc(O[C@@H]4CCN(CCO)C4)cn3)nc12 [Compound 1059]
< 10	≥ 100	CCNc1nc([C@@H](C)O)cc2cnc(Nc3ccc(CN4CCC(O)CC4)cn3)nc12 [Compound 1060]
< 10	≥ 100	CCCCNc1nc([C@@H](C)O)cc2cnc(Nc3ccc(CN4CCC(O)CC4)cn3)nc12 [Compound 1061]
< 10	≥ 100	C[C@@H](O)c1cc2cnc(Nc3ccc(CN4CCN(CCO)CC4)cn3)nc2c(NC2CCCC2)n1 [Compound 1070]
< 10	≥ 100	C[C@@H](O)c1cc2cnc(Nc3ccc(CN4CCN(CCO)CC4)cn3)nc2c(NC(C)(C)C)n1 [Compound 1071]
< 10	≥ 100	CCNc1nc([C@@H](C)O)cc2cnc(Nc3ccc(CN4CCN(CCCO)CC4)cn3)nc12 [Compound 1072]
< 10	≥ 100	C[C@@H](O)c1cc2cnc(Nc3ccc(CN4CCN(CCO)CC4)cn3)nc2c(NCCCF)n1 [Compound 1074]
< 10	≥ 100	CCCNc1nc([C@@H](C)O)cc2cnc(Nc3ccc(CN4CCN(C[C@H](C)O)CC4)cn3)nc12 [Compound 1075]
< 10	≥ 100	CCCNc1nc([C@@H](C)O)cc2cnc(Nc3ccc(CN4CCN(CCO)C[C@H]4C)cn3)nc12 [Compound 1076]
< 10	≥ 100	CCCNc1nc([C@@H](C)O)cc2cnc(Nc3ccc(CN4CCN(CCO)C[C@@H]4C)cn3)nc12 [Compound 1077]
< 10	≥ 100	C[C@@H](O)c1cc2cnc(Nc3ccc(N4CCNCC4=O)cn3)nc2c(NCCCF)n1 [Compound 1079]
< 10	≥ 100	CCNc1nc([C@@H](C)O)cc2cnc(Nc3ccc(CN4CCCC(O)C4)cn3)nc12 (stereo partly drawn) [Compound 1080]
< 10	≥ 100	CCCNc1nc([C@@H](C)O)cc2cnc(Nc3ccc(CN4CCCC(O)C4)cn3)nc12 (stereo partly drawn) [Compound 1081]
< 10	≥ 100	C[C@@H](O)c1cc2cnc(Nc3ccc(CN4CCCC(O)C4)cn3)nc2c(NCC2CC2)n1 (stereo partly drawn) [Compound 1083]
< 10	≥ 100	C[C@@H](O)c1cc2cnc(Nc3ccc(CN4CCCC(O)C4)cn3)nc2c(NC2CCC2)n1 (stereo partly drawn) [Compound 1084]
< 10	≥ 100	CC(C)CNc1nc([C@@H](C)O)cc2cnc(Nc3ccc(CN4CCCC(O)C4)cn3)nc12 (stereo partly drawn) [Compound 1085]
< 10	≥ 100	CCCNc1nc([C@@H](C)O)cc2cnc(Nc3ccc(N4CCNCC4)c(C)n3)nc12 [Compound 1092]
